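Growth conditions: 96-well plates. Treatment: test compound, 48 hours, 5 concentrations. Analysis: linear interpolation between bracketing concentrations; unreached endpoints set to highest concentration. Abbreviation: GI50, concentration required for 50% inhibition of growth. Definition used: TGI = concentration required for complete inhibition of growth.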
Key:
Test in all cases: DTP human tumour cell line panel, 48 h
SW-620 colon = system: SW-620 colon
UACC-62 melanoma = system: UACC-62 melanoma
SN12C renal = system: SN12C renal
M14 melanoma = system: M14 melanoma
OVCAR-5 ovarian = system: OVCAR-5 ovarian
A549 NSCLC = system: A549 NSCLC
K-562 leukemia = system: K-562 leukemia
PC-3 prostate = system: PC-3 prostate
SK-MEL-5 melanoma = system: SK-MEL-5 melanoma
SK-MEL-28 melanoma = system: SK-MEL-28 melanoma

With `Cc1ccc(NC(=O)CC2CC2)cc1-c1ccc(C(=O)NCC2CC2)cc1` the GI50 (SW-620 colon) was > 25 µM, the TGI (SW-620 colon) was > 25 µM and the GI50 (UACC-62 melanoma) was > 21.7 µM. For the same molecule, the TGI (UACC-62 melanoma) was > 25 µM, the GI50 (SN12C renal) was > 25 µM and the TGI (SN12C renal) was > 25 µM. The GI50 (M14 melanoma) was > 25 µM, the TGI (M14 melanoma) was > 25 µM and the GI50 (OVCAR-5 ovarian) was > 25 µM. For the same molecule, the TGI (OVCAR-5 ovarian) was > 25 µM, the GI50 (A549 NSCLC) was > 25 µM and the TGI (A549 NSCLC) was > 25 µM. For the same molecule, the GI50 (K-562 leukemia) was > 14.1 µM, the TGI (K-562 leukemia) was > 25 µM and the GI50 (PC-3 prostate) was > 25 µM. For the same molecule, the TGI (PC-3 prostate) was > 25 µM, the GI50 (SK-MEL-5 melanoma) was > 17.5 µM and the TGI (SK-MEL-5 melanoma) was > 25 µM. The GI50 (SK-MEL-28 melanoma) was > 25 µM and the TGI (SK-MEL-28 melanoma) was > 25 µM.

With `CN(C)C(n1cc2c(c1)-c1ccc(Cl)cc1C(c1ccccc1F)=NC2)n1cc2c(c1)-c1ccc(Cl)cc1C(c1ccccc1F)=NC2` the TGI (SW-620 colon) was > 100 µM, the TGI (UACC-62 melanoma) was > 100 µM and the TGI (SN12C renal) was > 100 µM. The TGI (M14 melanoma) was > 100 µM, the TGI (OVCAR-5 ovarian) was > 100 µM and the TGI (A549 NSCLC) was > 100 µM. The TGI (K-562 leukemia) was > 100 µM, the TGI (PC-3 prostate) was > 100 µM and the TGI (SK-MEL-5 melanoma) was > 100 µM. The TGI (SK-MEL-28 melanoma) was > 100 µM.

`Nc1nc(/C=C\c2ccc([N+](=O)[O-])s2)nc(N2CCCC2)n1` showed a GI50 (SW-620 colon) of 2.76 µM, a TGI (SW-620 colon) of 24 µM and a GI50 (UACC-62 melanoma) of 1.43 µM. It also gave a TGI (UACC-62 melanoma) of 8.67 µM, a GI50 (SN12C renal) of 3.45 µM and a TGI (SN12C renal) of 20.5 µM. The GI50 (M14 melanoma) was 3.72 µM, the TGI (M14 melanoma) was 17.1 µM and the GI50 (OVCAR-5 ovarian) was 15.7 µM. For the same molecule, the TGI (OVCAR-5 ovarian) was 30.7 µM, the GI50 (A549 NSCLC) was 2.97 µM and the TGI (A549 NSCLC) was 22.9 µM. For the same molecule, the GI50 (K-562 leukemia) was 1.83 µM, the TGI (K-562 leukemia) was 8.32 µM and the GI50 (PC-3 prostate) was 3.92 µM. For the same molecule, the TGI (PC-3 prostate) was 21.9 µM, the GI50 (SK-MEL-5 melanoma) was 9.66 µM and the TGI (SK-MEL-5 melanoma) was 22.5 µM. The GI50 (SK-MEL-28 melanoma) was 9.33 µM and the TGI (SK-MEL-28 melanoma) was 23.6 µM.

`CNCC#Cc1c(F)ccc2c1/C(=C/c1[nH]ccc1OC)C(=O)N2` was tested, and the GI50 (SW-620 colon) was 0.136 µM, the TGI (SW-620 colon) was 2.38 µM and the GI50 (UACC-62 melanoma) was 0.249 µM. The TGI (UACC-62 melanoma) was 0.815 µM, the GI50 (SN12C renal) was 0.118 µM and the TGI (SN12C renal) was 2.86 µM. For the same molecule, the GI50 (M14 melanoma) was 0.181 µM, the TGI (M14 melanoma) was 1.48 µM and the GI50 (OVCAR-5 ovarian) was 0.323 µM. It also gave a TGI (OVCAR-5 ovarian) of 3.16 µM, a GI50 (A549 NSCLC) of 0.129 µM and a TGI (A549 NSCLC) of 2.71 µM. It also gave a GI50 (K-562 leukemia) of 0.65 µM, a TGI (K-562 leukemia) of 3.61 µM and a GI50 (PC-3 prostate) of 0.32 µM. For the same molecule, the TGI (PC-3 prostate) was 2.88 µM, the GI50 (SK-MEL-5 melanoma) was 0.21 µM and the TGI (SK-MEL-5 melanoma) was 1.42 µM. For the same molecule, the GI50 (SK-MEL-28 melanoma) was 0.329 µM and the TGI (SK-MEL-28 melanoma) was 2.88 µM.

For `CN(C)CC[PH+](c1ccccc1)c1ccccc1.CN(C)CC[PH+](c1ccccc1)c1ccccc1.[Cl-].[Pd+2]`, the GI50 (SW-620 colon) was > 100 µM, the TGI (SW-620 colon) was > 100 µM and the GI50 (UACC-62 melanoma) was > 100 µM. The TGI (UACC-62 melanoma) was > 100 µM, the GI50 (SN12C renal) was > 100 µM and the TGI (SN12C renal) was > 100 µM. The GI50 (M14 melanoma) was > 100 µM, the TGI (M14 melanoma) was > 100 µM and the GI50 (OVCAR-5 ovarian) was > 100 µM. The TGI (OVCAR-5 ovarian) was > 100 µM, the GI50 (A549 NSCLC) was > 100 µM and the TGI (A549 NSCLC) was > 100 µM. For the same molecule, the GI50 (K-562 leukemia) was 27.8 µM, the TGI (K-562 leukemia) was > 100 µM and the GI50 (PC-3 prostate) was > 100 µM. For the same molecule, the TGI (PC-3 prostate) was > 100 µM, the GI50 (SK-MEL-5 melanoma) was > 100 µM and the TGI (SK-MEL-5 melanoma) was > 100 µM. The GI50 (SK-MEL-28 melanoma) was > 100 µM and the TGI (SK-MEL-28 melanoma) was > 100 µM.

In the case of `COc1cc(-c2cc(-c3cc4c([nH]c5ccccc54)c(-c4cc(OC)c(OC)c(OC)c4)n3)cc(-c3ccccc3)n2)cc(OC)c1OC`, the GI50 (SW-620 colon) is reported as 3.62 µM, the TGI (SW-620 colon) is reported as > 100 µM and the GI50 (UACC-62 melanoma) is reported as 2.9 µM. The TGI (UACC-62 melanoma) was 18 µM, the GI50 (SN12C renal) was 4.08 µM and the TGI (SN12C renal) was > 100 µM. The GI50 (M14 melanoma) was 3.49 µM, the TGI (M14 melanoma) was > 100 µM and the GI50 (OVCAR-5 ovarian) was 25.7 µM. The TGI (OVCAR-5 ovarian) was > 100 µM, the GI50 (A549 NSCLC) was 3.4 µM and the TGI (A549 NSCLC) was 80.9 µM. The GI50 (K-562 leukemia) was 3.39 µM, the TGI (K-562 leukemia) was > 100 µM and the GI50 (PC-3 prostate) was 3.59 µM. It also gave a TGI (PC-3 prostate) of 32.3 µM, a GI50 (SK-MEL-5 melanoma) of 2.46 µM and a TGI (SK-MEL-5 melanoma) of 7.61 µM. For the same molecule, the GI50 (SK-MEL-28 melanoma) was 4.3 µM and the TGI (SK-MEL-28 melanoma) was 30.2 µM.

In the case of `O=C1Nc2ccccc2/C1=N\[O-].O=C1Nc2ccccc2/C1=N\[O-].[Cu+2]`, the GI50 (SW-620 colon) is reported as > 100 µM, the TGI (SW-620 colon) is reported as > 100 µM and the GI50 (UACC-62 melanoma) is reported as > 100 µM. For the same molecule, the TGI (UACC-62 melanoma) was > 100 µM, the GI50 (SN12C renal) was > 100 µM and the TGI (SN12C renal) was > 100 µM. For the same molecule, the GI50 (M14 melanoma) was > 100 µM, the TGI (M14 melanoma) was > 100 µM and the GI50 (OVCAR-5 ovarian) was > 100 µM. The TGI (OVCAR-5 ovarian) was > 100 µM, the GI50 (A549 NSCLC) was > 100 µM and the TGI (A549 NSCLC) was > 100 µM. For the same molecule, the GI50 (K-562 leukemia) was > 100 µM, the TGI (K-562 leukemia) was > 100 µM and the GI50 (PC-3 prostate) was > 100 µM. For the same molecule, the TGI (PC-3 prostate) was > 100 µM, the GI50 (SK-MEL-5 melanoma) was > 100 µM and the TGI (SK-MEL-5 melanoma) was > 100 µM. The GI50 (SK-MEL-28 melanoma) was > 100 µM and the TGI (SK-MEL-28 melanoma) was > 100 µM.

In the case of `Oc1cccnc1[Se]`, the TGI (SW-620 colon) is reported as > 100 µM, the TGI (UACC-62 melanoma) is reported as > 100 µM and the TGI (SN12C renal) is reported as > 100 µM. For the same molecule, the TGI (M14 melanoma) was 67.9 µM, the TGI (OVCAR-5 ovarian) was > 100 µM and the TGI (A549 NSCLC) was > 100 µM. The TGI (K-562 leukemia) was > 100 µM, the TGI (PC-3 prostate) was > 100 µM and the TGI (SK-MEL-5 melanoma) was > 100 µM. For the same molecule, the TGI (SK-MEL-28 melanoma) was > 100 µM.

Work on `COc1ccc(C(=O)/C=C/c2cc(-c3cc(OC)c(OC)c(OC)c3)n[nH]2)cc1OC` yielded a GI50 (SW-620 colon) of 1.37 µM, a TGI (SW-620 colon) of 2.99 µM and a GI50 (UACC-62 melanoma) of 1.74 µM. The TGI (UACC-62 melanoma) was 3.22 µM, the GI50 (SN12C renal) was 1.54 µM and the TGI (SN12C renal) was 3.13 µM. The GI50 (M14 melanoma) was 1.84 µM, the TGI (M14 melanoma) was 3.69 µM and the GI50 (OVCAR-5 ovarian) was 1.59 µM. It also gave a TGI (OVCAR-5 ovarian) of 3.03 µM, a GI50 (A549 NSCLC) of 1.86 µM and a TGI (A549 NSCLC) of 4.59 µM. For the same molecule, the GI50 (K-562 leukemia) was 1.91 µM, the TGI (K-562 leukemia) was 7.12 µM and the GI50 (PC-3 prostate) was 1.36 µM. It also gave a TGI (PC-3 prostate) of 2.8 µM, a GI50 (SK-MEL-5 melanoma) of 1.65 µM and a TGI (SK-MEL-5 melanoma) of 3.03 µM. For the same molecule, the GI50 (SK-MEL-28 melanoma) was 1.78 µM and the TGI (SK-MEL-28 melanoma) was 3.34 µM.

`COc1ccc(-c2nn(-c3ccc(NC(=O)c4ccc(Cl)c(Cl)c4)cc3)cc2-c2ccncc2)cc1Cl` was tested, and the GI50 (SW-620 colon) was 2.67 µM, the TGI (SW-620 colon) was > 50 µM and the GI50 (UACC-62 melanoma) was 1.78 µM. The TGI (UACC-62 melanoma) was > 38.7 µM, the GI50 (SN12C renal) was > 50 µM and the TGI (SN12C renal) was > 50 µM. The GI50 (M14 melanoma) was 1.67 µM, the TGI (M14 melanoma) was > 12.9 µM and the GI50 (OVCAR-5 ovarian) was 3.24 µM. The TGI (OVCAR-5 ovarian) was > 50 µM, the GI50 (A549 NSCLC) was > 12.4 µM and the TGI (A549 NSCLC) was > 50 µM. The GI50 (K-562 leukemia) was 1.76 µM, the TGI (K-562 leukemia) was > 30.6 µM and the GI50 (PC-3 prostate) was 2.42 µM. For the same molecule, the TGI (PC-3 prostate) was > 50 µM, the GI50 (SK-MEL-5 melanoma) was 1.91 µM and the TGI (SK-MEL-5 melanoma) was > 50 µM. For the same molecule, the GI50 (SK-MEL-28 melanoma) was > 50 µM and the TGI (SK-MEL-28 melanoma) was > 50 µM.

— PubChem BioAssay (NCI)
